IC50 data for eleven molecules are collected here from patent publication US9809623B2, “α4β7 peptide monomer and dimer antagonists” (Protagonist Therapeutics, Inc., priority 2014, dated 2017).

Structures are written as SMILES. Numbered stars: 1 amine (or outer) side, 2 acyl side, 3 side chain; on linkers, the order of the positions; unused ones are H or OH. Bridge positions count the residues as written; N and C are the ends. Square brackets hold non-standard residues; d marks the D form. Peptide text beside a SMILES is read from it. I, II: the chains in the order shown. 2Nal = N[C@@H](Cc1ccc2ccccc2c1)C(=O)O; Diglycolyl = O=C(COCC(=O)[*:2])[*:1]; NMeR = CN[C@@H](CCCNC(=N)N)C(=O)O; Pen = CC(C)(S)[C@H](N)C(=O)O; Dab = NCC[C@H](N)C(=O)O; Dap = NC[C@H](N)C(=O)O

The target of this test is α4β7 (Homo sapiens, UniProt P13612+P26010). Briefly: α4β7-MAdCAM Cell Adhesion Assay (RPMI 8866 human cells). The test is classed as cell-based. The arrangement: host or cells: RPMI 8866 human B lymphoblastoid cells. Particulars: Table 3-B, Potency (α4β7); range classes; read-out: α4β7 cell (Hu) IC50. The protocol: RPMI 8866 human cells (Sigma #95041316) were cultured in RPMI 1640 HEPES medium (Invitrogen #22400-089) supplemented with 10% serum (Fetal Bovine Serum, Invitrogen #16140-071), 1 mM sodium pyruvate (Invitrogen #11360-070), 2 mM L-glutamine (Invitrogen #25030-081) and Penicillin-Streptomycin (Invitrogen #15140-122) at 100 units of penicillin and 100 μg of streptomycin per ml. The cells were washed two times in DMEM medium (ATCC #30-2002) supplemented with 0.1% BSA, 10 mM HEPES pH 7 and 1 mM MnCl2. The cells were re-suspended in supplemented DMEM medium at a density of 4×10^6 cells/ml.
Sequence of α4β7 (P13612 34-1032): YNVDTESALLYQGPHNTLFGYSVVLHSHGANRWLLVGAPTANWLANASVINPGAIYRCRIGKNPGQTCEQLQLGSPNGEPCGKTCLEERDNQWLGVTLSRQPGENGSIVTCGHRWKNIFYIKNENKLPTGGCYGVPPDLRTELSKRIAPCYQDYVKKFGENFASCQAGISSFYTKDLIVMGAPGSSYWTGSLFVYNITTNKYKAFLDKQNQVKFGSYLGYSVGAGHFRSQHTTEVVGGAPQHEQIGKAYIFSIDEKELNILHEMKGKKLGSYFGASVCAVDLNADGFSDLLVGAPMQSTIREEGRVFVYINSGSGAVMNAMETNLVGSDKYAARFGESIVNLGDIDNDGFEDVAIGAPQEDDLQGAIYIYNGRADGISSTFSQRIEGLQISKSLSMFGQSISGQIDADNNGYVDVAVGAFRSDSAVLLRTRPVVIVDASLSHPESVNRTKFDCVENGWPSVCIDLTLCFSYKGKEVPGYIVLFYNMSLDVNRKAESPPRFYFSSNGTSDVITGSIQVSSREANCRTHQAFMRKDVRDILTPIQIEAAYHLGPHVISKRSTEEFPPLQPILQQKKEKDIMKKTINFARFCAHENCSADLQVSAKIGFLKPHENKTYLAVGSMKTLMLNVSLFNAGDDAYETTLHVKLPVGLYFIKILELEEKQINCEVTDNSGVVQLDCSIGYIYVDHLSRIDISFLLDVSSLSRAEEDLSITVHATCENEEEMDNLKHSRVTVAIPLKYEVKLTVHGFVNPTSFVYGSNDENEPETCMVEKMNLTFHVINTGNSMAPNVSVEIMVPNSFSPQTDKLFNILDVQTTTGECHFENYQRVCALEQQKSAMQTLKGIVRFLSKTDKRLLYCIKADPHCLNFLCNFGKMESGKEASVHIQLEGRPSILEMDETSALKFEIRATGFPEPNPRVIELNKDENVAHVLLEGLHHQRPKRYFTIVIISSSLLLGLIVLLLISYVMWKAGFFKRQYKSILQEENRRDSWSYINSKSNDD
Sequence of α4β7 (P26010 20-798): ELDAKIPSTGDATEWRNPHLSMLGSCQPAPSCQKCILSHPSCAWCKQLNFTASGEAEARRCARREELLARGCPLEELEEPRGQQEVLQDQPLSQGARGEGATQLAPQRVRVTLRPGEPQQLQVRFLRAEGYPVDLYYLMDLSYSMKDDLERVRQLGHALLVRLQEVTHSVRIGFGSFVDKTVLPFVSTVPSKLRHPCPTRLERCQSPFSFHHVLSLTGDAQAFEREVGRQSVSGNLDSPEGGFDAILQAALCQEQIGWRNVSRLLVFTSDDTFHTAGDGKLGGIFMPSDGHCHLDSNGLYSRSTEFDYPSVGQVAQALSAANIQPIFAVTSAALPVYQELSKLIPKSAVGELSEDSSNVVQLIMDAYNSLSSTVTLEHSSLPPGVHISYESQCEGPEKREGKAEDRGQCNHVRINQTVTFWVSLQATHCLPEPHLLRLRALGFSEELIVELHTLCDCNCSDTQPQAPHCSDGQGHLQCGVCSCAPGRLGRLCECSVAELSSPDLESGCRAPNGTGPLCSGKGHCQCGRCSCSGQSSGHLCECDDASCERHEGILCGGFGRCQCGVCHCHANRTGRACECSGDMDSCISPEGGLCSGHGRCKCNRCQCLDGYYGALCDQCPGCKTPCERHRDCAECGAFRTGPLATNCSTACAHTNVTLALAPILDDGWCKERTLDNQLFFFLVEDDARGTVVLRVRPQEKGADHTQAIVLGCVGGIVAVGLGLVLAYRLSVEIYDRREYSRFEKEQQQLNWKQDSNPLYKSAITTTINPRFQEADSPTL
A Nunc MaxiSorp plate was coated with rh MAdCAM-1/Fc Chimera (R&D #6065-MC) at 200 ng per well in 50 ul per well in 1×PBS and incubated at 4° C. overnight. The solution was then removed by shaking, blocked with 250 ul per well PBS containing 1% BSA, and incubated at 37° C. for 1 hr. The solution was removed by shaking. Peptides were diluted by serial dilution in a final volume of 50 ul per well (2× concentration). To each well, 50 ul of cells (200,000 cells) were added and the plate was incubated at 37° C., 5% CO2 for 30-45 min to allow cell adhesion. The wells were washed manually three times (100 ul per wash) with supplemented DMEM. After the final wash, 100 ul/well of supplemented DMEM and 10 ul/well of MTT reagent (ATTC cat#30-1010K) were added. The plate was incubated at 37° C., 5% CO2 for 2-3 hrs until a purple precipitate was visible. 100 ul of Detergent Reagent (ATTC cat#30-1010K) was added to each well. The plate was covered from the light, wrapped in Parafilm to prevent evaporation, and left overnight at room temperature in the dark. The plate was shaken for 5 min and the absorbance at 570 nm was measured. To calculate the dose response, the absorbance value of control wells not containing cells was subtracted from each test well.
As a reminder, the IC50 is the concentration that gives 50% inhibition. As for `CC(=O)N[C@@H]1C(=O)N(C)[C@@H](CCCNC(=N)N)C(=O)N[C@@H](CO)C(=O)N[C@@H](CC(=O)O)C(=O)N[C@@H]([C@@H](C)O)C(=O)N[C@@H](CC(C)C)C(=O)N[C@H](C(=O)N[C@@H](Cc2c[nH]c3ccccc23)C(=O)N[C@@H](CCC(=O)O)C(=O)N[C@@H](CN)C(N)=O)C(C)(C)SSC1(C)C` [compound 59] (Ac-[Pen][NMeR]SDTL[Pen]WE[Dap]-NH2; disulfide 1-7), the IC50 lay in the range of 10000 to 100000 nM.

`CC(=O)N[C@@H]1C(=O)N(C)[C@@H](CCCNC(=N)N)C(=O)N[C@@H](CO)C(=O)N[C@@H](CC(=O)O)C(=O)N[C@@H]([C@@H](C)O)C(=O)N[C@@H](CC(C)C)C(=O)N[C@H](C(=O)N[C@@H](Cc2c[nH]c3ccccc23)C(=O)N[C@@H](CCC(=O)O)C(=O)N[C@@H](CCN)C(N)=O)C(C)(C)SSC1(C)C` [compound 61] (Ac-[Pen][NMeR]SDTL[Pen]WE[Dab]-NH2; disulfide 1-7): the IC50 is 1000 to 10000 nM. Under `CC(=O)N[C@@H]1C(=O)N(C)[C@@H](CCCNC(=N)N)C(=O)N[C@@H](CO)C(=O)N[C@@H](CC(=O)O)C(=O)N[C@@H]([C@@H](C)O)C(=O)N[C@@H](CC(C)C)C(=O)N[C@H](C(=O)N[C@@H](Cc2c[nH]c3ccccc23)C(=O)N[C@H](CCC(=O)O)C(=O)N[C@H](CCCCNC(=O)CN(CC(=O)NCCCC[C@@H](NC(=O)[C@@H](CCC(=O)O)NC(=O)[C@H](Cc2c[nH]c3ccccc23)NC(=O)[C@H]2NC(=O)[C@H](CC(C)C)NC(=O)[C@H]([C@@H](C)O)NC(=O)[C@H](CC(=O)O)NC(=O)[C@H](CO)NC(=O)[C@H](CCCNC(=N)N)N(C)C(=O)[C@@H](NC(C)=O)C(C)(C)SSC2(C)C)C(N)=O)C(=O)CCN)C(N)=O)C(C)(C)SSC1(C)C` [compound 70] stands 25 to 50 nM; under `CC(=O)N[C@@H]1C(=O)N(C)[C@@H](CCCNC(=N)N)C(=O)N[C@@H](CO)C(=O)N[C@@H](CC(=O)O)C(=O)N[C@@H]([C@@H](C)O)C(=O)N[C@@H](CC(C)C)C(=O)N[C@H](C(=O)N[C@@H](Cc2c[nH]c3ccccc23)C(=O)N[C@H](CCC(=O)O)C(=O)N[C@H](CCCCNC(=O)CN(CC(=O)NCCCC[C@@H](NC(=O)[C@@H](CCC(=O)O)NC(=O)[C@H](Cc2c[nH]c3ccccc23)NC(=O)[C@H]2NC(=O)[C@H](CC(C)C)NC(=O)[C@H]([C@@H](C)O)NC(=O)[C@H](CC(=O)O)NC(=O)[C@H](CO)NC(=O)[C@H](CCCNC(=N)N)N(C)C(=O)[C@@H](NC(C)=O)C(C)(C)SSC2(C)C)C(N)=O)C(=O)CCNC(=O)CCCCC2SCC3NC(=O)NC32)C(N)=O)C(C)(C)SSC1(C)C` (some centres unmarked) [compound 71], 25 to 50 nM. Then `CC(=O)N[C@@H]1C(=O)N(C)[C@@H](CCCNC(=N)N)C(=O)N[C@@H](CO)C(=O)N[C@@H](CC(=O)O)C(=O)N[C@@H]([C@@H](C)O)C(=O)N[C@@H](CC(C)C)C(=O)N[C@H](C(=O)N[C@@H](Cc2ccc3ccccc3c2)C(=O)N[C@@H](CCC(=O)O)C(N)=O)C(C)(C)SSC1(C)C` [compound 75] (Ac-[Pen][NMeR]SDTL[Pen][2Nal]E-NH2; disulfide 1-7), with 50 to 100 nM.

Turning to `CC(=O)N[C@@H]1C(=O)N(C)[C@@H](CCCNC(=N)N)C(=O)N[C@@H](CO)C(=O)N[C@@H](CC(=O)O)C(=O)N[C@@H]([C@@H](C)O)C(=O)N[C@@H](CC(C)C)C(=O)N[C@H](C(=O)N[C@@H](Cc2c[nH]c3ccccc23)C(=O)N[C@H](CCCCNC(=O)COCC(=O)NCCCC[C@@H](NC(=O)[C@H](Cc2c[nH]c3ccccc23)NC(=O)[C@H]2NC(=O)[C@H](CC(C)C)NC(=O)[C@H]([C@@H](C)O)NC(=O)[C@H](CC(=O)O)NC(=O)[C@H](CO)NC(=O)[C@H](CCCNC(=N)N)N(C)C(=O)[C@@H](NC(C)=O)C(C)(C)SSC2(C)C)C(=O)O)C(=O)O)C(C)(C)SSC1(C)C` [compound 76] (I: Ac-[Pen][NMeR]SDTL[Pen]W[dK]-OH / II: Ac-[Pen][NMeR]SDTL[Pen]W[dK]-OH; disulfide I:1-I:7, II:1-II:7; linker I:9-II:9 via Diglycolyl), the IC50 was in the range of 10 to 25 nM. Then `CC(=O)N[C@@H]1C(=O)N(C)[C@@H](CCCNC(=N)N)C(=O)N[C@@H](CO)C(=O)N[C@@H](CC(=O)O)C(=O)N[C@@H]([C@@H](C)O)C(=O)N[C@@H](CC(C)C)C(=O)N[C@H](C(=O)N[C@@H](Cc2c[nH]c3ccccc23)C(=O)N[C@@H](CCC(N)=O)C(=O)N[C@H](CCCCNC(=O)COCC(=O)NCCCC[C@@H](NC(=O)[C@H](CCC(N)=O)NC(=O)[C@H](Cc2c[nH]c3ccccc23)NC(=O)[C@H]2NC(=O)[C@H](CC(C)C)NC(=O)[C@H]([C@@H](C)O)NC(=O)[C@H](CC(=O)O)NC(=O)[C@H](CO)NC(=O)[C@H](CCCNC(=N)N)N(C)C(=O)[C@@H](NC(C)=O)C(C)(C)SSC2(C)C)C(N)=O)C(N)=O)C(C)(C)SSC1(C)C` [compound 82] (I: Ac-[Pen][NMeR]SDTL[Pen]WQ[dK]-NH2 / II: Ac-[Pen][NMeR]SDTL[Pen]WQ[dK]-NH2; disulfide I:1-I:7, II:1-II:7; linker I:10-II:10 via Diglycolyl), with 50 to 100 nM; and `CC(=O)N[C@@H]1C(=O)N(C)[C@@H](CCCNC(=N)N)C(=O)N[C@@H](CO)C(=O)N[C@@H](CC(=O)O)C(=O)N[C@@H]([C@@H](C)O)C(=O)N[C@@H](CC(C)C)C(=O)N[C@H](C(=O)N[C@@H](Cc2c[nH]c3ccccc23)C(=O)N[C@@H](CC(N)=O)C(=O)N[C@H](CCCCNC(=O)COCC(=O)NCCCC[C@@H](NC(=O)[C@H](CC(N)=O)NC(=O)[C@H](Cc2c[nH]c3ccccc23)NC(=O)[C@H]2NC(=O)[C@H](CC(C)C)NC(=O)[C@H]([C@@H](C)O)NC(=O)[C@H](CC(=O)O)NC(=O)[C@H](CO)NC(=O)[C@H](CCCNC(=N)N)N(C)C(=O)[C@@H](NC(C)=O)C(C)(C)SSC2(C)C)C(N)=O)C(N)=O)C(C)(C)SSC1(C)C` [compound 83] (I: Ac-[Pen][NMeR]SDTL[Pen]WN[dK]-NH2 / II: Ac-[Pen][NMeR]SDTL[Pen]WN[dK]-NH2; disulfide I:1-I:7, II:1-II:7; linker I:10-II:10 via Diglycolyl), with 50 to 100 nM; and `CC(=O)N[C@@H]1C(=O)N(C)[C@@H](CCCNC(=N)N)C(=O)N[C@@H](CO)C(=O)N[C@@H](CC(=O)O)C(=O)N[C@@H]([C@@H](C)O)C(=O)N[C@@H](CC(C)C)C(=O)N[C@H](C(=O)N[C@@H](Cc2c[nH]c3ccccc23)C(=O)N[C@@H](Cc2ccccc2)C(=O)N[C@H](CCCCNC(=O)COCC(=O)NCCCC[C@@H](NC(=O)[C@H](Cc2ccccc2)NC(=O)[C@H](Cc2c[nH]c3ccccc23)NC(=O)[C@H]2NC(=O)[C@H](CC(C)C)NC(=O)[C@H]([C@@H](C)O)NC(=O)[C@H](CC(=O)O)NC(=O)[C@H](CO)NC(=O)[C@H](CCCNC(=N)N)N(C)C(=O)[C@@H](NC(C)=O)C(C)(C)SSC2(C)C)C(N)=O)C(N)=O)C(C)(C)SSC1(C)C` [compound 85] (I: Ac-[Pen][NMeR]SDTL[Pen]WF[dK]-NH2 / II: Ac-[Pen][NMeR]SDTL[Pen]WF[dK]-NH2; disulfide I:1-I:7, II:1-II:7; linker I:10-II:10 via Diglycolyl), with < 10 nM.

As for `CC(=O)N[C@@H]1C(=O)N(C)[C@@H](CCCNC(=N)N)C(=O)N[C@@H](CO)C(=O)N[C@@H](CC(=O)O)C(=O)N[C@@H]([C@@H](C)O)C(=O)N[C@@H](CC(C)C)C(=O)N[C@H](C(=O)N[C@@H](Cc2c[nH]c3ccccc23)C(=O)N[C@@H](CC(=O)O)C(=O)N[C@H](CCCCNC(=O)COCC(=O)NCCCC[C@@H](NC(=O)[C@H](CC(=O)O)NC(=O)[C@H](Cc2c[nH]c3ccccc23)NC(=O)[C@H]2NC(=O)[C@H](CC(C)C)NC(=O)[C@H]([C@@H](C)O)NC(=O)[C@H](CC(=O)O)NC(=O)[C@H](CO)NC(=O)[C@H](CCCNC(=N)N)N(C)C(=O)[C@@H](NC(C)=O)C(C)(C)SSC2(C)C)C(N)=O)C(N)=O)C(C)(C)SSC1(C)C` [compound 87] (I: Ac-[Pen][NMeR]SDTL[Pen]WD[dK]-NH2 / II: Ac-[Pen][NMeR]SDTL[Pen]WD[dK]-NH2; disulfide I:1-I:7, II:1-II:7; linker I:10-II:10 via Diglycolyl), the IC50 lay in the range of 25 to 50 nM. Under `CC(=O)N[C@@H]1C(=O)N(C)[C@@H](CCCNC(=N)N)C(=O)N[C@@H](CO)C(=O)N[C@@H](CC(=O)O)C(=O)N[C@@H]([C@@H](C)O)C(=O)N[C@@H](CC(C)C)C(=O)N[C@H](C(=O)N[C@@H](Cc2c[nH]c3ccccc23)C(=O)N[C@H](Cc2ccccc2)C(=O)N[C@H](CCCCNC(=O)COCC(=O)NCCCC[C@@H](NC(=O)[C@@H](Cc2ccccc2)NC(=O)[C@H](Cc2c[nH]c3ccccc23)NC(=O)[C@H]2NC(=O)[C@H](CC(C)C)NC(=O)[C@H]([C@@H](C)O)NC(=O)[C@H](CC(=O)O)NC(=O)[C@H](CO)NC(=O)[C@H](CCCNC(=N)N)N(C)C(=O)[C@@H](NC(C)=O)C(C)(C)SSC2(C)C)C(N)=O)C(N)=O)C(C)(C)SSC1(C)C` [compound 91] (I: Ac-[Pen][NMeR]SDTL[Pen]W[dF][dK]-NH2 / II: Ac-[Pen][NMeR]SDTL[Pen]W[dF][dK]-NH2; disulfide I:1-I:7, II:1-II:7; linker I:10-II:10 via Diglycolyl) stands 100 to 500 nM.
